Source: patent US7834008B2, “Cyclopropyl derivatives as NK3 receptor antagonists” (H. Lundbeck A/S, priority 2003, dated 2010)

Biological target: T1, human NK3 receptor (Homo sapiens, UniProt P29371)
T1 construct: expressed in transfected cells
T1 sequence (P29371 1-465): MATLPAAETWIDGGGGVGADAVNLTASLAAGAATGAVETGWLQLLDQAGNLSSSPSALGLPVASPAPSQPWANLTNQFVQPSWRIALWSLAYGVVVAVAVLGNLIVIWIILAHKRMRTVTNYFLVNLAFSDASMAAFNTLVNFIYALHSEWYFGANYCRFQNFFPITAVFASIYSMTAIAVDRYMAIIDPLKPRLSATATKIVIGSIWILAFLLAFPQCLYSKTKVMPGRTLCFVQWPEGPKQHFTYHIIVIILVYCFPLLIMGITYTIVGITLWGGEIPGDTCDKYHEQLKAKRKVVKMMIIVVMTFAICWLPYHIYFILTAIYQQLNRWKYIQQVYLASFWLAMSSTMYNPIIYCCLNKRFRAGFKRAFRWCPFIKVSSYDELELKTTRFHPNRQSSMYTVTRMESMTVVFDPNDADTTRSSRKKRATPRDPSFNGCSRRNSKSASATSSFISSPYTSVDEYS
Experiment: Fluorometric Imaging Plate Reader (FLIPR) calcium assay, antagonist test against NKB
Assay type: cell-based
Details: BHK cells stably expressing the human NK3 receptor, EC85 of NKB (app. 1 nM)
Protocol: The Fluorometric Imaging Plate Reader (FLIPR) assay: The compounds were analysed for efficacy profile in FLIPR assays similar to assays described in Jerman, J C et al: Eur J Pharmacol. 2001, 414, p 23-30. BHK cells (cf. Example 20) stably expressing the human NK3 receptor were seeded in 100 μl media in black walled clear-base 96-wells plates (Costar) aiming at a confluency of 95-100% at the day of assay. The assay was performed according to the calcium assay kit (Molecular Devices). Briefly, the calcium assay reagent was dissolved in Hanks BSS (HBSS) buffer, pH 7.4 containing 20 mM Hepes and 2.5 mM probinicid. An equal volume (100 μl) of the calcium assay reagent solution was added to the wells and the plates were incubated for 60 min at 37° C. The plates were subsequently placed in the FLIPR for examination of fluorescence.
Compounds were diluted in HBSS buffer containing 20 mM Hepes prior to test. For test of agonist activity 50 μl of compound was added to the wells and the plates were analysed for 3 minutes in the FLIPR. For test of antagonist activity, 25 μl of compound was added to the wells and the plate was analysed for a 5 minute period. Subsequently, the wells were added 25 μl of an EC85 (final concentration) of NKB (app. 1 nM) previously determined from a dose-response curve with NKB. The plates were subsequently read for 3 minutes before termination. As controls, selected wells on all plates were added only 100 nM of the NK3 receptor agonist NKB or 2 μM of the calcium ionophor ionomycin. The maximal increase in fluorescence over background following each ligand addition was determined and analysed.

| Molecule | inhibition of the NKB-mediated activation of the NK3 receptor |
| --- | --- |
| CC(=O)N1CC2(CCN(C[C@@H]3C[C@@]3(C(=O)N(C)Cc3ccc(F)cc3)c3ccccc3)CC2)c2ccccc21 [Compound 23a] | inhibited the NKB-mediated activation of the NK3 receptor |
| CC(=O)N1CC2(CCN(C[C@@H]3C[C@@]3(C(=O)N(C)Cc3ccc(F)cc3)c3ccccc3)CC2)c2cc(F)ccc21 [Compound 25a] | inhibited the NKB-mediated activation of the NK3 receptor |
| CC(=O)N1CC2(CCN(C[C@@H]3C[C@@]3(C(=O)N(C)Cc3ccc(F)cc3)c3ccc(F)cc3)CC2)c2cc(F)ccc21 [Compound 32a] | inhibited the NKB-mediated activation of the NK3 receptor |
| CN(Cc1ccc(F)cc1)C(=O)[C@@]1(c2ccccc2)C[C@H]1CN1CCC(C(=O)N2CCCCC2)(c2ccccc2)CC1 [Compound 42a, (1S,2R)-1-Phenyl-2-[4-phenyl-4-(piperidine-1-carbonyl)-piperidin-1-ylmethyl]-cyclopropanecarboxylic acid (4-fluoro-benzyl)-methyl-amide] | inhibited the NKB-mediated activation of the NK3 receptor |
| CC(=O)NC1(c2ccccc2)CCN(C[C@@H]2C[C@@]2(C(=O)N(C)Cc2ccc(F)cc2)c2ccc(Cl)cc2)CC1 [Compound 44a, (1S,2R)-2-(4-Acetylamino-4-phenyl-piperidin-1-ylmethyl)-1-(4-chloro-phenyl)-cyclopropanecarboxylic acid (4-fluoro-benzyl)-methyl-amide] | inhibited the NKB-mediated activation of the NK3 receptor |
| CC(=O)NC1(c2ccccc2)CCN(C[C@@H]2C[C@@]2(C(=O)N(C)Cc2ccccc2Cl)c2ccc(Cl)cc2)CC1 [Compound 45a, (1S,2R)-2-(4-Acetylamino-4-phenyl-piperidin-1-ylmethyl)-1-(4-chloro-phenyl)-cyclopropanecarboxylic acid (2-chloro-benzyl)-methyl-amide] | inhibited the NKB-mediated activation of the NK3 receptor |
| (1S,2R)-1-(3,4-Difluoro-phenyl)-2-[4-phenyl-4-(piperidine-1-carbonyl)-piperidin-1-ylmethyl]-cyclopropanecarboxylic acid-methyl-amide [Compound 33a] | inhibited the NKB-mediated activation of the NK3 receptor |

System: not given
Experiment: not given
Details: in particular positive symptoms; cited from earlier work

| Molecule | effect against schizophrenia |
| --- | --- |
| CC(=O)N(C)C1(c2ccccc2)CCN(CCC[C@]2(c3ccc(Cl)c(Cl)c3)CCCN(C(=O)c3ccccc3)C2)CC1 [SR142801] | has effect against schizophrenia |
